{"source": "patent US20040180908A1", "about": "“Adenosine derivative in polymorph ii form” (priority 2001, published 2004)", "test": "stability of the polymorph at elevated temperatures", "type": "physicochemical", "settings": "for example in excess of 70° C."}
{"smiles": "CC(C)(C)c1nnc([C@H]2O[C@@H](n3cnc4c(Nc5ccc(Cl)cc5F)ncnc43)[C@H](O)[C@@H]2O)o1", "note": "[Polymorph II, (2S,3S,4R,5R)-2-(5-tert-butyl-[1,3,4]-oxadiazol-2-yl)-5-[6-(4-chloro-2-fluorophenylamino)-9H-purin-9-yl]-tetrahydrofuran-3,4-diol]", "values": [{"measurement": "stability at elevated temperatures", "value": "particular stability at elevated temperatures"}]}
